According to patent US20070049564A1 (Wyeth, priority 2005, published 2007):
Values after ≈ are worked out from the molar mass of the structure shown. Read-outs that look alike come from different tables or passages of the source.

Experiments:
[1] = test system: E. coli GC 2231; experiment: MIC, broth microdilution; conditions: Escherichia coli, GC2231, E. coli GC 2231
Protocol: (§1) Antimicrobial susceptibility testing. The in vitro activities of the antibiotics are determined by the broth microdilution method as recommended by the National Committee for Clinical Laboratory Standards (NCCLS) (1). Mueller-Hinton II broth (MHBII)(BBL Cockeysville, Md.) is the medium employed in the testing procedures. Microtiter plates containing serial dilutions of each antimicrobial agent are inoculated with each organism to yield the appropriate density (10^5 CFU/ml) in a 100 μl final volume. The plates are incubated for 18-22 hours at 35° C. in ambient air.
Representative compounds were first incubated in mouse serum for an hour prior to the in vitro testing against a panel of selected gram-positive and gram-negative bacteria strains. All compounds were also pre-incubated in water for an hour prior to testing as control.

[2] = test system: E. coli GC 2232; experiment: MIC, broth microdilution; conditions: Escherichia coli, GC2232, E. coli GC 2232
[3] = test system: E. coli GC 2272; experiment: MIC, broth microdilution; conditions: Escherichia coli, GC2272, E. coli GC 2272
[4] = test system: E. coli GC 4560; experiment: MIC, broth microdilution; conditions: Escherichia coli, GC4560, E. coli GC 4560
[5] = test system: E. coli GC 6465; experiment: MIC, broth microdilution; conditions: Escherichia coli, GC6465, E. coli GC 6465
[6] = test system: E. coli GC 3226; experiment: MIC, broth microdilution; conditions: Escherichia coli, GC3226, E. coli GC 3226
[7] = test system: E. coli GC 2203; experiment: MIC, broth microdilution; conditions: Escherichia coli, GC2203, E. coli GC 2203
[8] = test system: S. typhimurium GC 2172; experiment: MIC, broth microdilution; conditions: Salmonella enterica, TYPHIMURIUM, S. typhimurium GC 2172
[9] = test system: S. aureus GC 6466; experiment: MIC, broth microdilution; conditions: Staphylococcus aureus, GC6466, S. aureus GC 6466
[10] = test system: S. aureus GC 6467; experiment: MIC, broth microdilution; conditions: Staphylococcus aureus, GC6467, S. aureus GC 6467
[11] = test system: S. aureus GC 4536; experiment: MIC, broth microdilution; conditions: Staphylococcus aureus, GC4536, S. aureus GC 4536
[12] = test system: S. aureus GC 6469; experiment: MIC, broth microdilution; conditions: Staphylococcus aureus, GC6469, S. aureus GC 6469
[13] = test system: E. faecalis GC 4555; experiment: MIC, broth microdilution; conditions: Enterococcus faecalis, GC4555, E. faecalis GC 4555
[14] = test system: E. faecalis GC 2265; experiment: MIC, broth microdilution; conditions: Enterococcus faecalis, GC2265, E. faecalis GC 2265
[15] = test system: E. faecalis GC 2267; experiment: MIC, broth microdilution; conditions: Enterococcus faecalis, GC2267, E. faecalis GC 2267
[16] = test system: E. faecium GC 2243; experiment: MIC, broth microdilution; conditions: Enterococcus faecium, GC2243, E. faecium GC 2243
[17] = test system: S. pneumoniae* GC 4465; experiment: MIC, broth microdilution; conditions: Streptococcus pneumoniae, S. pneumoniae* GC 4465
[18] = test system: S. agalactiae GC 4564; experiment: MIC, broth microdilution; conditions: Streptococcus agalactiae, GC4564, S. agalactiae GC 4564
[19] = test system: E. coli; experiment: Range of MIC for E. coli strains; conditions: Escherichia coli
Protocol: as §1
Representative compounds were first incubated in mouse serum for an hour prior to the in vitro testing against a panel of selected gram-positive and gram-negative bacteria strains. All compounds were also pre-incubated in water for an hour prior to testing as control. Representative compounds of Formula I were incubated in human serum prior to MIC determination.

[20] = test system: Staph.; experiment: Range of MIC for Staph. strains, including MRSA; conditions: Staphylococcus aureus, MRSA
[21] = 20 h, read-out: Range of MIC, E. coli (Mouse Serum)
[22] = read-out: Range of MIC, Staph (Mouse Serum)
[23] = read-out: Range of MIC, Staph (Water)

CCCCN(CC(=O)Nc1cc(N(C)C)c2c(c1O)C(=O)C1=C(O)[C@]3(O)C(=O)C(C(N)=O)=C(O)[C@@H](N(C)C)[C@@H]3C[C@@H]1C2)C(=O)OCOC(=O)C(C)(C)C [Example 13, ({[(2-{[(5aR,6aS,7S,10aS)-9-(aminocarbonyl)-4,7-bis(dimethylamino)-1,8,10a,11-tetrahydroxy-10,12-dioxo-5,5a,6,6a,7,10,10a,12-octahydrotetracen-2-yl]amino}-2-oxoethyl)(butyl)amino]carbonyl}oxy)methyl pivalate]
MIC ([1]; Mouse Serum pre-incubation): 2 µg/mL (≈ 2.69 µM) | MIC ([1]; Water pre-incubation): 16 µg/mL (≈ 21.5 µM) | MIC ([2]; Mouse Serum pre-incubation): 2 µg/mL (≈ 2.69 µM) | MIC ([2]; Water pre-incubation): 8 µg/mL (≈ 10.8 µM) | MIC ([3]; Mouse Serum pre-incubation): 2 µg/mL (≈ 2.69 µM) | MIC ([3]; Water pre-incubation): 8 µg/mL (≈ 10.8 µM) | MIC ([4]; Mouse Serum pre-incubation): 1 µg/mL (≈ 1.34 µM) | MIC ([4]; Water pre-incubation): 4 µg/mL (≈ 5.38 µM) | MIC ([5]; Mouse Serum pre-incubation): 8 µg/mL (≈ 10.8 µM) | MIC ([5]; Water pre-incubation): > 64 µg/mL | MIC ([6]; Mouse Serum pre-incubation): 2 µg/mL (≈ 2.69 µM) | MIC ([6]; Water pre-incubation): 16 µg/mL (≈ 21.5 µM) | MIC ([7]; Mouse Serum pre-incubation): 2 µg/mL (≈ 2.69 µM) | MIC ([7]; Water pre-incubation): 8 µg/mL (≈ 10.8 µM) | MIC ([8]; Mouse Serum pre-incubation): 8 µg/mL (≈ 10.8 µM) | MIC ([8]; Water pre-incubation): 64 µg/mL (≈ 86 µM) | MIC ([9]; Mouse Serum pre-incubation): 1 µg/mL (≈ 1.34 µM) | MIC ([9]; Water pre-incubation): 2 µg/mL (≈ 2.69 µM) | MIC ([10]; Mouse Serum pre-incubation): 4 µg/mL (≈ 5.38 µM) | MIC ([10]; Water pre-incubation): 8 µg/mL (≈ 10.8 µM) | MIC ([11]; Mouse Serum pre-incubation): 1 µg/mL (≈ 1.34 µM) | MIC ([11]; Water pre-incubation): 2 µg/mL (≈ 2.69 µM) | MIC ([12]; Mouse Serum pre-incubation): 4 µg/mL (≈ 5.38 µM) | MIC ([12]; Water pre-incubation): 8 µg/mL (≈ 10.8 µM) | MIC ([13]; Mouse Serum pre-incubation): 2 µg/mL (≈ 2.69 µM) | MIC ([13]; Water pre-incubation): 4 µg/mL (≈ 5.38 µM) | MIC ([14]; Mouse Serum pre-incubation): 4 µg/mL (≈ 5.38 µM) | MIC ([14]; Water pre-incubation): 8 µg/mL (≈ 10.8 µM) | MIC ([15]; Mouse Serum pre-incubation): 4 µg/mL (≈ 5.38 µM) | MIC ([15]; Water pre-incubation): 8 µg/mL (≈ 10.8 µM) | MIC ([16]; Mouse Serum pre-incubation): 2 µg/mL (≈ 2.69 µM) | MIC ([16]; Water pre-incubation): 4 µg/mL (≈ 5.38 µM) | MIC ([17]; Mouse Serum pre-incubation): 0.5 µg/mL (≈ 0.672 µM) | MIC ([17]; Water pre-incubation): 0.5 µg/mL (≈ 0.672 µM) | MIC ([18]; Mouse Serum pre-incubation): 1 µg/mL (≈ 1.34 µM) | MIC ([18]; Water pre-incubation): 2 µg/mL (≈ 2.69 µM) | MIC [19, 21]: 1 to 4 µg/mL (≈ 1.34 to 5.38 µM) | MIC ([19]; read-out: Minimum inhibitory concentration (MIC), E. coli (mouse serum)): 1 to 4 µg/mL (≈ 1.34 to 5.38 µM) | MIC ([19]; read-out: Minimum inhibitory concentration (MIC), E. coli (water)): 8 to 16 µg/mL (≈ 10.8 to 21.5 µM) | MIC ([19]; read-out: Range of MIC, E. coli (Water)): 8 to 16 µg/mL (≈ 10.8 to 21.5 µM) | MIC ([20]; read-out: Minimum inhibitory concentration (MIC), Staph. (mouse serum)): 1 to 4 µg/mL (≈ 1.34 to 5.38 µM) | MIC ([20]; read-out: Minimum inhibitory concentration (MIC), Staph. (water)): 2 to 8 µg/mL (≈ 2.69 to 10.8 µM) | MIC [20, 22]: 1 to 4 µg/mL (≈ 1.34 to 5.38 µM) | MIC [20, 23]: 2 to 8 µg/mL (≈ 2.69 to 10.8 µM)

CCCN(CC(=O)Nc1cc(N(C)C)c2c(c1O)C(=O)C1=C(O)[C@]3(O)C(=O)C(C(N)=O)=C(O)[C@@H](N(C)C)[C@@H]3C[C@@H]1C2)C(=O)OCOC(=O)c1ccc(F)cc1 [Example 8, ({[(2-{[(5aR,6aS,7S,10aS)-9-(aminocarbonyl)-4,7-bis(dimethylamino)-1,8,10a,11-tetrahydroxy-10,12-dioxo-5,5a,6,6a,7,10,10a,12-octahydrotetracen-2-yl]amino}-2-oxoethyl)(propyl)amino]carbonyl}oxy)methyl 4-fluorobenzoate]
MIC ([1]; Mouse Serum pre-incubation): 2 µg/mL (≈ 2.6 µM) | MIC ([1]; Water pre-incubation): > 64 µg/mL | MIC ([2]; Mouse Serum pre-incubation): 1 µg/mL (≈ 1.3 µM) | MIC ([2]; Water pre-incubation): 32 µg/mL (≈ 41.7 µM) | MIC ([3]; Mouse Serum pre-incubation): 1 µg/mL (≈ 1.3 µM) | MIC ([3]; Water pre-incubation): 32 µg/mL (≈ 41.7 µM) | MIC ([4]; Mouse Serum pre-incubation): 0.5 µg/mL (≈ 0.651 µM) | MIC ([4]; Water pre-incubation): 4 µg/mL (≈ 5.21 µM) | MIC ([5]; Mouse Serum pre-incubation): 8 µg/mL (≈ 10.4 µM) | MIC ([5]; Water pre-incubation): > 64 µg/mL | MIC ([6]; Mouse Serum pre-incubation): 2 µg/mL (≈ 2.6 µM) | MIC ([6]; Water pre-incubation): 64 µg/mL (≈ 83.4 µM) | MIC ([7]; Mouse Serum pre-incubation): 1 µg/mL (≈ 1.3 µM) | MIC ([7]; Water pre-incubation): 32 µg/mL (≈ 41.7 µM) | MIC ([8]; Mouse Serum pre-incubation): 8 µg/mL (≈ 10.4 µM) | MIC ([8]; Water pre-incubation): > 64 µg/mL | MIC ([9]; Mouse Serum pre-incubation): 0.5 µg/mL (≈ 0.651 µM) | MIC ([9]; Water pre-incubation): 1 µg/mL (≈ 1.3 µM) | MIC ([10]; Mouse Serum pre-incubation): 4 µg/mL (≈ 5.21 µM) | MIC ([10]; Water pre-incubation): 8 µg/mL (≈ 10.4 µM) | MIC ([11]; Mouse Serum pre-incubation): 0.5 µg/mL (≈ 0.651 µM) | MIC ([11]; Water pre-incubation): 2 µg/mL (≈ 2.6 µM) | MIC ([12]; Mouse Serum pre-incubation): 2 µg/mL (≈ 2.6 µM) | MIC ([12]; Water pre-incubation): 8 µg/mL (≈ 10.4 µM) | MIC ([13]; Mouse Serum pre-incubation): 0.5 µg/mL (≈ 0.651 µM) | MIC ([13]; Water pre-incubation): 8 µg/mL (≈ 10.4 µM) | MIC ([14]; Mouse Serum pre-incubation): 2 µg/mL (≈ 2.6 µM) | MIC ([14]; Water pre-incubation): 8 µg/mL (≈ 10.4 µM) | MIC ([15]; Mouse Serum pre-incubation): 2 µg/mL (≈ 2.6 µM) | MIC ([15]; Water pre-incubation): 8 µg/mL (≈ 10.4 µM) | MIC ([16]; Mouse Serum pre-incubation): 0.25 µg/mL (≈ 0.326 µM) | MIC ([16]; Water pre-incubation): 2 µg/mL (≈ 2.6 µM) | MIC ([17]; Mouse Serum pre-incubation): < 0.06 µg/mL | MIC ([17]; Water pre-incubation): 0.25 µg/mL (≈ 0.326 µM) | MIC ([18]; Mouse Serum pre-incubation): 0.25 µg/mL (≈ 0.326 µM) | MIC ([18]; Water pre-incubation): 0.5 µg/mL (≈ 0.651 µM) | MIC [19, 21]: 1 to 2 µg/mL (≈ 1.3 to 2.6 µM) | MIC ([19]; read-out: Range of MIC, E. coli (mouse serum)): 1 to 2 µg/mL (≈ 1.3 to 2.6 µM) | MIC [20, 22]: 0.5 to 4 µg/mL (≈ 0.651 to 5.21 µM) | MIC [20, 23]: 1 to 8 µg/mL (≈ 1.3 to 10.4 µM) | MIC ([20]; read-out: Range of MIC, Staph. (mouse serum)): 0.5 to 4 µg/mL (≈ 0.651 to 5.21 µM) | MIC ([20]; read-out: Range of MIC, Staph. (water)): 1 to 8 µg/mL (≈ 1.3 to 10.4 µM)
